Like-named read-outs stand apart in the source and are kept apart here. Values belong to the molecule of their own block, whether it stands above or below them.
What was measured:
[1] = tested on: retinal neovascularization in C57BL/6 mice; assay: Oxygen-induced retinopathy, area of retinal neovascularization; type: in vivo; conditions: 5 ug peri-ocularly every 5 days
Procedure: C57BL/6 mice placed in 75% O2 at postnatal day (P) 7 and at P12 were returned to room air and treatment initiated with compound or vehicle. At P17, the area of retinal NV on the surface of the retina was measured as described previously (Shen et al., 2007). Briefly, P17 mice were given an intraocular injection of 1 μl of rat anti-mouse platelet endothelial cell adhesion molecule-1 (PECAM-1) antibody (Pharmingen, San Jose, Calif., USA); after 12 h, they were euthanized, and eyes were fixed in PBS-buffered formalin for 5 h at room temperature. Retinas were dissected, washed, and incubated with goat-anti rat polyclonal antibody conjugated with Alexa 488 (Invitrogen, Carlsbad, Calif., USA) at 1:500 dilution at room temperature for 45 min and flat mounted. An observer masked with respect to treatment group measured the area of NV per retina by image analysis.
(see, FIGS. 12 and 13). In systemic experiments both eyes were examined and no significant differences were observed between CCR3 inhibitor '994 and vehicle treated groups. In topical experiments no significant differences were noted between CCR3 inhibitor '994 and vehicle groups nor treated and fellow eye in the CCR3 inhibitor '994 treated group. […] Consequently SU4312 acts similarly on retinal neovascularization to that of an alternative receptor tyrosine kinase inhibitor pazopanib which was effective in limiting choroidal neovascularization.

[2] = tested on: laser-induced model of CNV AMD; conditions: oral dosing; Mizutani et al., 2011; cited from earlier work
Cynomolgus monkey CCR3 = target: T1, Cynomolgus monkey CCR3 (Macaca fascicularis, UniProt Q9BDS8); assay: Cynomolgus monkey whole blood eotaxin-stimulated eosinophil shape change assay; type: cell-based
T1 construct: from tissue; host or cells: Cynomolgus monkey whole blood (eosinophils)
T1 sequence (Q9BDS8 1-355): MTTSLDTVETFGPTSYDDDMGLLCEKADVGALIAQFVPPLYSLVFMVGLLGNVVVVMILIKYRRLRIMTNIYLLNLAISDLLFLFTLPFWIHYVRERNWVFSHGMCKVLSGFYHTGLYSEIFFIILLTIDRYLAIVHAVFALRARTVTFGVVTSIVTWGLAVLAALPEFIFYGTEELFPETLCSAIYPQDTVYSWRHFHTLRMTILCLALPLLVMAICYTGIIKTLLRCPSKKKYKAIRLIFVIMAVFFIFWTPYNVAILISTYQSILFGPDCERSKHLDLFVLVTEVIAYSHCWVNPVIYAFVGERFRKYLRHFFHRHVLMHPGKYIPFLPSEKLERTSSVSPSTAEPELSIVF
Procedure: Blood (10 mL) was taken from Cynomolgus monkeys and 1.1 ml of 3.8% sodium citrate solution added. Aliquots (90 μl) were incubated with antagonist at room temperature for 10 minutes then transferred to BSA-coated micronic tubes containing agonist (10 μl human eotaxin (Peprotech) Eotaxin was present at final concentrations between 0 and 1000 nM. The cells were incubated at 37° C. for a further 4 minutes before addition of […] of ice-cold fixation buffer (a ¼ dilution of 1x Cellfix (Becton Dickinson)). After a minimum of 2 minutes the fixed samples were transferred into 2 ml of ice cold erythrocyte lysis buffer (155 mM NH4Cl, 10 mM KHCO3) and incubated on ice until lysis was complete (˜30 minutes). The mean forward scatter of the eosinophil population was then determined on a FACScalibur flow cytometer.
The concentration response curve of eotaxin-1 on eosinophil shape change in Cynomolgus whole blood and the effect of pre-incubation of 10 nM and 100 nM the '415 compound is shown in FIG. 11.

[3] = tested on: laser-induced CNV in Cynomolgus monkey; assay: Laser-induced choroidal neovascular AMD study in the Cynomolgus monkey, Grade IV lesions; type: in vivo
Procedure: Cynomolgus monkeys were dosed with vehicle or the CCR3 antagonist tool compound the '415 compound as shown in Table A for 29 days with laser occurring […]. […]
The macula of each eye underwent laser treatment with a 532-nm diode green laser burns (OcuLight GL, IRIDEX Corp Inc, Mountain View, Calif.) using a slit lamp delivery system and a Kaufman-Wallow (Ocular Instruments Inc, Bellevue, Wash.) plano fundus contact lens. Animals were anesthetized and nine areas symmetrically placed in the macula of each eye. The laser parameters included a 75-micron spot size and 0.1-second duration. The power setting used was assessed by the ability to produce a blister and a small haemorrhage. Unless haemorrhage is observed with the first laser treatment, a second laser spot will be placed adjacent to the first following the same laser procedure (except the wattage would be adjusted). For areas not adjacent to the fovea, the initial power setting was 500 mW; if a second spot is placed, the power was set to 650 mW. For the area adjacent to the fovea, the power settings was 400 mW (initial treatment) and 550 mW (second treatment). […]
Animals were fasted before fluorescein angiography for at least 2 hours prior to being anesthetized and the eyes dilated with a mydriatic agent. […] Comparison of the incidence of Grade IV lesions between groups was evaluated.

[4] = Exposure in Cynomolgus monkey; conditions: in vivo
[5] = target: T2, Cynomolgus whole blood CCR3 (Macaca fascicularis, UniProt Q9BDS8); assay: Fractional receptor occupancy at trough in Cynomolgus monkey; type: in vivo; conditions: at trough (8 hours); both 9 mg/kg/day and 60 mg/kg/day, TID
T2 construct: from tissue; host or cells: Cynomolgus monkey whole blood (eosinophils)
T2 sequence (Q9BDS8 1-355): T1 sequence (Q9BDS8 1-355)

SMILES: CN(C)c1ccc(/C=C2\C(=O)Nc3ccccc32)cc1 [SU4312]
effect on retinal neovascularization [1]: effective inhibitor
p, reduction in retinal neovascularization, treated versus fellow (non-treated) eyes [1]: < 0.004
p, reduction in retinal neovascularization, treated versus vehicle treated eyes [1]: < 0.003

SMILES: Cc1ccc[n+]([O-])c1C(=O)N1CCC(=CC(=O)NC2CCN(Cc3ccc4cc(F)ccc4c3)C2)CC1 (centres unmarked) [YM-344031]
efficacy in a laser-induced model of CNV AMD [2]: effective

Kb (Cynomolgus monkey CCR3; depending on experiment, read-out: pA2, potency against Cynomolgus monkey CCR3 (converted)): 10 to 100 nM
Kb (Cynomolgus monkey CCR3; eotaxin-1 stimulated eosinophil shape change in Cynomolgus whole blood, read-out: mean pA2 (Schild analysis) (converted)): 15.8 nM
fractional receptor occupancy [5]: > 95%
SMILES: Cn1nnc(CNC(=O)NC[C@H]2CN(Cc3ccc(Cl)c(Cl)c3)CCO2)n1 [the '415 compound, (S)-1-((4-(3,4-dichlorobenzyl)morpholin-2-yl)methyl)-3-((2-methyl-2H-tetrazol-5-yl)methyl)urea]
inhibition of human eotaxin-induced eosinophil shape change (Cynomolgus monkey CCR3; Cynomolgus whole blood): concentration-dependent, surmountable inhibition
effect on the generation of grade IV lesions ([3]; 20 mg/kg TID po, fluorescence angiography at 16, 24 and 30 days post-laser): statistically robust effect
effect on the number of grade IV lesions ([3]; lower dose (3 mg/kg TID po)): not statistically different from controls
exposure in Cynomolgus monkey [4]: reasonable exposure in this primate with low inter-animal variability
